Values joined by “and” are separate entries in the source; they are usually repeats but may differ in a detail not shown here. Equal entries are not always repeated.
Tests used:
Estrogen receptor beta [1] = molecular target: T1, Estrogen receptor beta (Homo sapiens, UniProt Q92731); test: Displacement of [3H]estradiol from full-length human estrogen receptor beta by radiometric assay relative to estradiol
Homo sapiens = organism: Homo sapiens; test: Ratio of relative binding affinity for full-length human estrogen receptor beta to ratio of relative binding affinity for full length human estrogen receptor alpha
Estrogen receptor = molecular target: T2, Estrogen receptor (Homo sapiens, UniProt P03372)
T2 sequence (P03372 whole entry): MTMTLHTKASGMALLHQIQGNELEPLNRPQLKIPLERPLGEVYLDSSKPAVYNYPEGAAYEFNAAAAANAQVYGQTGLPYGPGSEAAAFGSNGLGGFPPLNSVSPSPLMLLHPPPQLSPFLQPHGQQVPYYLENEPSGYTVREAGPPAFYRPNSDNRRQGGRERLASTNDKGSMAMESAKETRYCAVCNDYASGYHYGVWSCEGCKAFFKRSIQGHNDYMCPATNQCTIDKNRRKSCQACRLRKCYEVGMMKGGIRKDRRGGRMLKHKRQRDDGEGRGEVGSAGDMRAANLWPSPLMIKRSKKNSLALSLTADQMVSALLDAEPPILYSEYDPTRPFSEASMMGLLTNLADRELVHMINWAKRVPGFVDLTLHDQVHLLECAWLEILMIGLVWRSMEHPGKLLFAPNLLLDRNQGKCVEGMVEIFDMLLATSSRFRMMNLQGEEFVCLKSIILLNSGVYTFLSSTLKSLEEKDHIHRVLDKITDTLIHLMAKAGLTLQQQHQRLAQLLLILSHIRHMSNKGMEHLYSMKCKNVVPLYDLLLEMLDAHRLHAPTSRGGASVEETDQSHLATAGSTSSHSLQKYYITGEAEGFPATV
Description: Agonist activity at full-length human estrogen receptor alpha expressed in human HEC1 cells assessed as transcriptional activation after 24 hrs by luciferase reporter gene assay

Estrogen receptor beta [2] = molecular target: T1, Estrogen receptor beta
Estrogen receptor beta [3] = molecular target: T1, Estrogen receptor beta; test: Agonist activity at full-length human estrogen receptor beta expressed in human HEC1 cells assessed as transcriptional activation after 24 hrs by luciferase reporter gene assay relative to estradiol; type: functional, cell-based; settings: HEC-1

T1 sequence (Q92731 whole entry): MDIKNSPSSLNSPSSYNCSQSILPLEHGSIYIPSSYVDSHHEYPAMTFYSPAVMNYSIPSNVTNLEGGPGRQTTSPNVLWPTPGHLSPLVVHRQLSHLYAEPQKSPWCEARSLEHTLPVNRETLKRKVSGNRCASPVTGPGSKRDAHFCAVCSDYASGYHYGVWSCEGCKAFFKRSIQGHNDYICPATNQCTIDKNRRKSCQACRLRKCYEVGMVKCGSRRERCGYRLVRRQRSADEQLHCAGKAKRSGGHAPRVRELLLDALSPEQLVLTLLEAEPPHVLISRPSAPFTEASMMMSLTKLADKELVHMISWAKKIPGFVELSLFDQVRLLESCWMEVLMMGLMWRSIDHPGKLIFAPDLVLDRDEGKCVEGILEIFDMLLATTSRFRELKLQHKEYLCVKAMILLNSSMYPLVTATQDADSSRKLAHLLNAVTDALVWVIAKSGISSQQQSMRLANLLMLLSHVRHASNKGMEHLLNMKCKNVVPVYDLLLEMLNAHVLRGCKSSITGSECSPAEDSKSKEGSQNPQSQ

COc1ccc(-c2ccc(/C=N/O)c(O)c2Cl)cc1F
Activity (Estrogen receptor beta [1]): 0.011% | Ratio (Homo sapiens): 1.8

COc1ccc(-c2ccc(O)c(/C=N/O)c2)cc1
Activity (Estrogen receptor beta [1]): 0.011% | Ratio (Homo sapiens): 3.7

COc1ccc(-c2ccc(/C(C)=N/O)c(O)c2Cl)cc1F
Activity (Estrogen receptor beta [1]): 0.002%

O/N=C/c1cc(-c2ccc(O)c(F)c2)ccc1O
Activity (Estrogen receptor beta [1]): 0.97% | Ratio (Homo sapiens): 46

O/N=C/c1cc(-c2ccc(O)cc2)ccc1O
EC50 (Estrogen receptor): 17 nM and 10 nM | Activity (Estrogen receptor beta [1]): 2.64% | Ratio (Homo sapiens): 41 | EC50 (Estrogen receptor beta [2]): 10 nM

C/C(=N\O)c1ccc(-c2ccc(O)c(F)c2)c(Cl)c1O
Activity (Estrogen receptor beta [1]): 0.077% | Ratio (Homo sapiens): 13

O/N=C/c1ccc(-c2ccc(O)cc2)cc1O
Activity (Estrogen receptor beta [1]): 0.553% | Ratio (Homo sapiens): 79

COc1ccc(-c2ccc(O)c(/C=N/O)c2)cc1F
Activity (Estrogen receptor beta [1]): 0.013% | Ratio (Homo sapiens): 1.9

COc1ccc(-c2ccc(/C(C)=N/O)c(O)c2Cl)cc1
Activity (Estrogen receptor beta [1]): 0.002%

O/N=C/c1ccc(-c2ccc(O)c(F)c2)c(Cl)c1O
EC50 (Estrogen receptor): 19 nM | Activity (Estrogen receptor beta [1]): 7.01% | Ki (Estrogen receptor beta [1]): 7.1 nM | Ratio (Homo sapiens): 62 | Activity (Estrogen receptor beta [3]): > 85% | EC50 (Estrogen receptor beta [2]): 4.8 nM

C/C(=N\O)c1ccc(-c2ccc(O)cc2)c(Cl)c1O
Activity (Estrogen receptor beta [1]): 0.123% | Ratio (Homo sapiens): 10
